According to patent US12414958B2, “Medicament and use thereof for treating bacterial infections involving biofilm” (Debiopharm International S.A., priority 2019, dated 2025):

Key:
ATCC 43300 MRSA strain [1] = test: Induction of resistance studies, ex vivo bacterial exposure to 4×MIC (Example 1); assay type: cell-based, Staphylococcus aureus; conditions: ex vivo exposure to 4×MIC; single and combination therapy; 24h or 72h biofilm
Protocol: Two experimental settings were used in this study to evaluate the treatment efficacies against early (24h) and/or mature (72h) MRSA catheter formed biofilms. Briefly, mice were anaesthetised by an IP injection of about 120 μl a mix of ketamine (50 mg/kg) and xylazine (10 mg/kg) (4 mL ketamine+2 mL xylazine+10 mL saline). Flank on the right side was shaved and then disinfected by 3 consecutive applications of betadine. A cutaneous and then subcutaneous (SC) incisions of 0.2 cm were made under sterile conditions and a 1 cm segment of polyurethane catheter (Ref. No. ES-04730 Arrow international) cut into 2 longitudinal fragments was inserted SC (into the incision and then pushed further under the skin, about 2 cm away from the incision). The inoculation was done simultaneously by placing 50 μl of the bacterial culture onto the catheter (10^6 CFU of ATCC 43300 MRSA strain). The incision was stitched up and disinfected. The day of the infection was referred to as Day0 (D0). To ensure that the study was conducted in sterile conditions from the start to the end of the experiment, non-infected mice (sentinel group) were included. […] In both 24 h and 72h biofilm settings, two groups of infected non-treated animals (Vehicle controls) were evaluated for bacterial counts: at baseline (24h or D1 [for 24-h biofilm] and 72h or D3 [for 72-h biofilm] post infection, i.e. time points corresponding to treatments initiations) and at the termination of treatment duration (D6 [for 24-h biofilm] and D8 [for 72-h biofilm] post infection). Post treatment CFUs were counted on D6 or D8 and results were expressed as Log10 CFU/g of catheter (Mean±SEM). The limit of detection was determined as being 1 Log10 CFU/g of catheter. Changes of CFU/g of catheter (Δ Log10) from the baseline (D1 or D3 for 24-h and 72-h biofilm, respectively) and cure rates (corresponding to the percentage of mice without catheter-associated bacteria within a given treatment group) were also calculated. In vivo induction of antibiotic-resistant bacteria was analysed for all tested antibiotics.

MRSA 43300 = test: MIC of Debio 1452; assay type: cell-based; conditions: Staphylococcus aureus
ATCC 43300 MRSA strain [2] = test: In vivo murine model of catheter associated infection, 24 h and 72 h MRSA biofilms; parameters: species or system Staphylococcus aureus; conditions: for CR (%) cure rate: 5.5-day treatment, percentage of mice without catheter-associated bacteria
Protocol: Two experimental settings were used in this study to evaluate the treatment efficacies against early (24h) and/or mature (72h) MRSA catheter formed biofilms. Briefly, mice were anaesthetised by an IP injection of about 120 μl a mix of ketamine (50 mg/kg) and xylazine (10 mg/kg) (4 mL ketamine+2 mL xylazine+10 mL saline). Flank on the right side was shaved and then disinfected by 3 consecutive applications of betadine. A cutaneous and then subcutaneous (SC) incisions of 0.2 cm were made under sterile conditions and a 1 cm segment of polyurethane catheter (Ref. No. ES-04730 Arrow international) cut into 2 longitudinal fragments was inserted SC (into the incision and then pushed further under the skin, about 2 cm away from the incision). The inoculation was done simultaneously by placing 50 μl of the bacterial culture onto the catheter (10^6 CFU of ATCC 43300 MRSA strain). The incision was stitched up and disinfected. The day of the infection was referred to as Day0 (D0). To ensure that the study was conducted in sterile conditions from the start to the end of the experiment, non-infected mice (sentinel group) were included. Treatments started either on D1 or D3 post infection, corresponding to early (24h) or more mature (72h) catheter formed biofilms, respectively, and lasted for 5.5 days (D1-D6) or (D3-D8). In both 24 h and 72h biofilm settings, two groups of infected non-treated animals (Vehicle controls) were evaluated for bacterial counts: at baseline (24h or D1 [for 24-h biofilm] and 72h or D3 [for 72-h biofilm] post infection, i.e. time points corresponding to treatments initiations) and at the termination of treatment duration (D6 [for 24-h biofilm] and D8 [for 72-h biofilm] post infection). Post treatment CFUs were counted on D6 or D8 and results were expressed as Log10 CFU/g of catheter (Mean±SEM). The limit of detection was determined as being 1 Log10 CFU/g of catheter. Changes of CFU/g of catheter (Δ Log10) from the baseline (D1 or D3 for 24-h and 72-h biofilm, respectively) and cure rates (corresponding to the percentage of mice without catheter-associated bacteria within a given treatment group) were also calculated. In vivo induction of antibiotic-resistant bacteria was analysed for all tested antibiotics.
Antibiotics doses were selected according to the effective doses in animals, which approximated the therapeutic human equivalent doses (HED) (Table 1).
Mice received antibiotics on D1, D2, D3, D4, D5 and D6 (only one administration at D6) or D3, D4, D5, D6, D7 and D8 (only one administration at D8). All antibiotics were administered BID IP, except Debio 1450 BES and Vancomycin, which were respectively given PO and SC. Daptomycin was tested as a once daily regimen to avoid tolerability issues. The antibiotics daily dosing was performed with a 10-12 hours interval between the two administrations. For combination therapy, antibiotics were administered simultaneously every 10-12 hours (the time required between the injection of the first antibiotic and the injection of the second antibiotic was less than 30 seconds per mouse).
In each sub-study, animals were randomly assigned to the antibiotic therapies or vehicle controls groups. Dose volumes were calculated according to individual body weight of each animal.
After blood collection, animals were sacrificed by cervical dislocation following anaesthesia. Two fragments of catheter per mouse were collected and were used for bacterial enumeration after sonication. Each fragment of catheter was individually washed under aseptic conditions in an Eppendorf tube (3 successive washing steps with 300 μl sterile saline). After the last wash, the catheter was suspended in 1 mL sterile saline, put in an ultrasonic bath (Advantage Lab) for 3 minutes at room temperature before being vigorously vortexed in order to detach all adherent bacteria from the catheter. Several successive dilutions of this suspension (undiluted, 10-2, […]) were cultured onto Chapman agar plates for 48 h at 37° C. […]

SMILES | emergence of resistant mutants (ATCC 43300 MRSA strain [1]) | MIC (MRSA 43300; determined in-house) | MIC (MRSA 43300; historical data from the Sponsor) | Log10 CFU/g of catheter (D 6) Mean ± SEM (ATCC 43300 MRSA strain [2]; Biofilm (24 h), 5.5-day treatment (D1-D6), BALB/c mice, doses as in Table 2) | ΔLog10 CFU/g of catheter from (D 1) Mean ± SEM (ATCC 43300 MRSA strain [2]; Biofilm (24 h), 5.5-day treatment (D1-D6), change from baseline D 1, BALB/c mice) | CR (%) cure rate (ATCC 43300 MRSA strain [2]; Biofilm (24 h)) | Log10 CFU/g of catheter (D 8) Mean ± SEM (ATCC 43300 MRSA strain [2]; Biofilm (72 h), 5.5-day treatment (D3-D8), BALB/c mice, doses as in Table 2) | ΔLog10 CFU/g of catheter from (D 3) Mean ± SEM (ATCC 43300 MRSA strain [2]; Biofilm (72 h), 5.5-day treatment (D3-D8), change from baseline D 3, BALB/c mice) | CR (%) cure rate (ATCC 43300 MRSA strain [2]; Biofilm (72 h))
Cc1c(CN(C)C(=O)/C=C/c2cnc3c(c2)CCC(=O)N3)oc2ccccc12 [Debio 1452, (E)-N-methyl-N-((3-methylbenzofuran-2-yl)methyl)-3-(7-oxo-5,6,7,8-tetrahydro-1,8-naphthyridin-3-yl) acrylamide] | no emergence of resistant mutants | 0.0625 µg/mL | 0.008 µg/mL | – | – | – | – | – | –
CN[C@H](CC(C)C)C(=O)N[C@H]1C(=O)N[C@@H](CC(N)=O)C(=O)N[C@H]2C(=O)N[C@H]3C(=O)N[C@H](C(=O)N[C@H](C(=O)O)c4cc(O)cc(O)c4-c4cc3ccc4O)[C@H](O)c3ccc(c(Cl)c3)Oc3cc2cc(c3O[C@@H]2O[C@H](CO)[C@@H](O)[C@H](O)[C@H]2O[C@H]2C[C@](C)(N)[C@H](O)[C@H](C)O2)Oc2ccc(cc2Cl)[C@H]1O [Vancomycin] | no emergence of resistant mutants | – | – | 5.08 ± 0.105 Log10 CFU/g of catheter | −1.59 ± 0.105 Log10 CFU/g of catheter | 0% | 4.84 ± 0.077 Log10 CFU/g of catheter | −1.94 ± 0.077 Log10 CFU/g of catheter | 0%
